Source: ChEMBL document CHEMBL4308841, “Synthesis, in vitro antiproliferative activity, and kinase inhibitory effects of pyrazole-containing diarylureas and diarylamides” (Eur J Med Chem, 2018)

Test system: MDA-MB-231
Assay: Growth inhibition of human MDA-MB-231 cells incubated for 48 hrs by sulforhodamine B assay
Format: functional, cell-based
Conditions: MDA-MB-231, 48 h, read-out: pGI50 (converted)

Compound | GI50
COc1cc(Cl)cc(-c2nn(-c3cccc(NC(=O)c4cccc(C(F)(F)F)c4)c3)cc2-c2ccncc2)c1 | 1.38 µM

Same assay, conditions: MDA-MB-231, 48 h, read-out: pLC50 (the source's name) (converted)

Compound | CC50
COc1cc(Cl)cc(-c2nn(-c3cccc(NC(=O)c4cccc(C(F)(F)F)c4)c3)cc2-c2ccncc2)c1 | > 100 µM

Same assay, conditions: MDA-MB-231, 48 h, read-out: pTGI (converted)

Compound | TGI
COc1cc(Cl)cc(-c2nn(-c3cccc(NC(=O)c4cccc(C(F)(F)F)c4)c3)cc2-c2ccncc2)c1 | 10 µM

Test system: NCI-H322M
Assay: Growth inhibition of human NCI-H322M cells assessed as cell growth at 0.01 uM incubated for 48 hrs by sulforhodamine B assay relative to control
Format: functional
Conditions: read-out: Activity

Compound | growth at 0.01 µM
COc1cc(Cl)cc(-c2nn(-c3cccc(NC(=O)c4cccc(C(F)(F)F)c4)c3)cc2-c2ccncc2)c1 | 69%

Test system: NCI-H226
Assay: Growth inhibition of human NCI-H226 cells assessed as cell growth at 100 uM incubated for 48 hrs by sulforhodamine B assay relative to control
Format: functional
Conditions: NCI-H226, 48 h, read-out: Activity

Compound | growth at 100 µM
COc1cc(Cl)cc(-c2nn(-c3cccc(NC(=O)c4cccc(C(F)(F)F)c4)c3)cc2-c2ccncc2)c1 | 50%

Test system: KM12
Assay: Growth inhibition of human KM12 cells assessed as cell growth at 0.1 uM incubated for 48 hrs by sulforhodamine B assay relative to control
Format: functional
Conditions: KM12, 48 h, read-out: Activity

Compound | growth at 0.1 µM
COc1cc(Cl)cc(-c2nn(-c3cccc(NC(=O)c4cccc(C(F)(F)F)c4)c3)cc2-c2ccncc2)c1 | 111%

Test system: MDA-MB-231
Assay: Growth inhibition of human MDA-MB-231 cells assessed as cell growth at 100 uM incubated for 48 hrs by sulforhodamine B assay relative to control
Format: functional
Conditions: MDA-MB-231, 48 h, read-out: Activity

Compound | growth at 100 µM
COc1cc(Cl)cc(-c2nn(-c3cccc(NC(=O)c4cccc(C(F)(F)F)c4)c3)cc2-c2ccncc2)c1 | -14%

Test system: SNB-19
Assay: Growth inhibition of human SNB19 cells incubated for 48 hrs by sulforhodamine B assay
Format: functional, cell-based
Conditions: SNB-19, 48 h, read-out: GI50

Compound | GI50
COc1cc(Cl)cc(-c2nn(-c3cccc(NC(=O)c4cccc(C(F)(F)F)c4)c3)cc2-c2ccncc2)c1 | > 100 µM

Same assay, conditions: SNB-19, 48 h, read-out: LC50 (the source's name)

Compound | CC50
COc1cc(Cl)cc(-c2nn(-c3cccc(NC(=O)c4cccc(C(F)(F)F)c4)c3)cc2-c2ccncc2)c1 | > 100 µM

Same assay, conditions: SNB-19, 48 h, read-out: TGI

Compound | TGI
COc1cc(Cl)cc(-c2nn(-c3cccc(NC(=O)c4cccc(C(F)(F)F)c4)c3)cc2-c2ccncc2)c1 | > 100 µM

Same assay, conditions: SNB-19, 48 h, read-out: pGI50 (converted)

Compound | GI50
COc1cc(Cl)cc(-c2nn(-c3cccc(NC(=O)c4cccc(C(F)(F)F)c4)c3)cc2-c2ccncc2)c1 | > 100 µM

Same assay, conditions: SNB-19, 48 h, read-out: pLC50 (the source's name) (converted)

Compound | CC50
COc1cc(Cl)cc(-c2nn(-c3cccc(NC(=O)c4cccc(C(F)(F)F)c4)c3)cc2-c2ccncc2)c1 | > 100 µM

Same assay, conditions: SNB-19, 48 h, read-out: pTGI (converted)

Compound | TGI
COc1cc(Cl)cc(-c2nn(-c3cccc(NC(=O)c4cccc(C(F)(F)F)c4)c3)cc2-c2ccncc2)c1 | > 100 µM

Test system: KM12
Assay: Growth inhibition of human KM12 cells assessed as cell growth at 0.01 uM incubated for 48 hrs by sulforhodamine B assay relative to control
Format: functional
Conditions: KM12, 48 h, read-out: Activity

Compound | growth at 0.01 µM
COc1cc(Cl)cc(-c2nn(-c3cccc(NC(=O)c4cccc(C(F)(F)F)c4)c3)cc2-c2ccncc2)c1 | 110%

Test system: M14
Assay: Growth inhibition of human M14 cells assessed as cell growth at 0.1 uM incubated for 48 hrs by sulforhodamine B assay relative to control
Format: functional
Conditions: M14, 48 h, read-out: Activity

Compound | growth at 0.1 µM
COc1cc(Cl)cc(-c2nn(-c3cccc(NC(=O)c4cccc(C(F)(F)F)c4)c3)cc2-c2ccncc2)c1 | 93%

Test system: CCRF-CEM
Assay: Growth inhibition of human CCRF-CEM cells assessed as cell growth at 1 uM incubated for 48 hrs by sulforhodamine B assay relative to control
Format: functional
Conditions: read-out: Activity

Compound | growth at 1 µM
COc1cc(Cl)cc(-c2nn(-c3cccc(NC(=O)c4cccc(C(F)(F)F)c4)c3)cc2-c2ccncc2)c1 | 53%

Test system: HCC 2998
Assay: Growth inhibition of human HCC2998 cells incubated for 48 hrs by sulforhodamine B assay
Format: functional, cell-based
Conditions: HCC 2998, 48 h, read-out: GI50

Compound | GI50
COc1cc(Cl)cc(-c2nn(-c3cccc(NC(=O)c4cccc(C(F)(F)F)c4)c3)cc2-c2ccncc2)c1 | 5.56 µM

Same assay, conditions: HCC 2998, 48 h, read-out: LC50 (the source's name)

Compound | CC50
COc1cc(Cl)cc(-c2nn(-c3cccc(NC(=O)c4cccc(C(F)(F)F)c4)c3)cc2-c2ccncc2)c1 | > 100 µM

Same assay, conditions: HCC 2998, 48 h, read-out: TGI

Compound | TGI
COc1cc(Cl)cc(-c2nn(-c3cccc(NC(=O)c4cccc(C(F)(F)F)c4)c3)cc2-c2ccncc2)c1 | > 100 µM

Same assay, conditions: HCC 2998, 48 h, read-out: pGI50 (converted)

Compound | GI50
COc1cc(Cl)cc(-c2nn(-c3cccc(NC(=O)c4cccc(C(F)(F)F)c4)c3)cc2-c2ccncc2)c1 | 6.61 µM

Same assay, conditions: HCC 2998, 48 h, read-out: pLC50 (the source's name) (converted)

Compound | CC50
COc1cc(Cl)cc(-c2nn(-c3cccc(NC(=O)c4cccc(C(F)(F)F)c4)c3)cc2-c2ccncc2)c1 | > 100 µM

Same assay, conditions: HCC 2998, 48 h, read-out: pTGI (converted)

Compound | TGI
COc1cc(Cl)cc(-c2nn(-c3cccc(NC(=O)c4cccc(C(F)(F)F)c4)c3)cc2-c2ccncc2)c1 | > 100 µM

Test system: NCI-H522
Assay: Growth inhibition of human NCI-H522 cells assessed as cell growth at 0.1 uM incubated for 48 hrs by sulforhodamine B assay relative to control
Format: functional
Conditions: NCI-H522, 48 h, read-out: Activity

Compound | growth at 0.1 µM
COc1cc(Cl)cc(-c2nn(-c3cccc(NC(=O)c4cccc(C(F)(F)F)c4)c3)cc2-c2ccncc2)c1 | 83%

Test system: NCI/ADR-RES
Assay: Growth inhibition of human NCI/ADR-RES cells assessed as cell growth at 1 uM incubated for 48 hrs by sulforhodamine B assay relative to control
Format: functional
Conditions: read-out: Activity

Compound | growth at 1 µM
COc1cc(Cl)cc(-c2nn(-c3cccc(NC(=O)c4cccc(C(F)(F)F)c4)c3)cc2-c2ccncc2)c1 | 89%

Test system: UACC-257
Assay: Growth inhibition of human UACC257 cells incubated for 48 hrs by sulforhodamine B assay
Format: functional, cell-based
Conditions: UACC-257, 48 h, read-out: GI50

Compound | GI50
COc1cc(Cl)cc(-c2nn(-c3cccc(NC(=O)c4cccc(C(F)(F)F)c4)c3)cc2-c2ccncc2)c1 | > 100 µM

Same assay, conditions: UACC-257, 48 h, read-out: LC50 (the source's name)

Compound | CC50
COc1cc(Cl)cc(-c2nn(-c3cccc(NC(=O)c4cccc(C(F)(F)F)c4)c3)cc2-c2ccncc2)c1 | > 100 µM

Same assay, conditions: UACC-257, 48 h, read-out: TGI

Compound | TGI
COc1cc(Cl)cc(-c2nn(-c3cccc(NC(=O)c4cccc(C(F)(F)F)c4)c3)cc2-c2ccncc2)c1 | > 100 µM

Same assay, conditions: UACC-257, 48 h, read-out: pGI50 (converted)

Compound | GI50
COc1cc(Cl)cc(-c2nn(-c3cccc(NC(=O)c4cccc(C(F)(F)F)c4)c3)cc2-c2ccncc2)c1 | > 100 µM

Same assay, conditions: UACC-257, 48 h, read-out: pLC50 (the source's name) (converted)

Compound | CC50
COc1cc(Cl)cc(-c2nn(-c3cccc(NC(=O)c4cccc(C(F)(F)F)c4)c3)cc2-c2ccncc2)c1 | > 100 µM

Same assay, conditions: UACC-257, 48 h, read-out: pTGI (converted)

Compound | TGI
COc1cc(Cl)cc(-c2nn(-c3cccc(NC(=O)c4cccc(C(F)(F)F)c4)c3)cc2-c2ccncc2)c1 | > 100 µM
